The conditions of data set [1]: commercially available injection vial containing a solution of paricalcitol; cited from earlier work.
The nature of data set [2]: formulation study of the effect of BHT on paricalcitol stability, 35 day 80° C. degradation model. It counts as physicochemical. Particulars: no BHT, ampule and vial with 4432/50/Flu/B2-40 stopper, 35 days. The protocol: BHT is an antioxidant and is often used to protect chemicals and materials from oxidative degradation and is present in several of the stoppers. Levels of BHT were identified in the test samples during the 21 day, 80° C. storage and during a separate 25, 30, and 40° C. stability studies conducted over a 9-month interval. […] To determine, whether or not BHT would enhance the stability or cause degradation of the paricalcitol solution, a formulation study was conducted to evaluate the effect of BHT on the stability of paricalcitol in the Zemplar® formulation with the current stopper using a 35 day 80° C. degradation model. In this study, different amounts of BHT were added to the Zemplar® formulation with concentrations of 0.05, 0.1, 0.5, and 1.0 mcg/mL. The controls consisted of the Zemplar formulation without BHT contained in ampules and vials sealed with either […]-1/FT/B2-40 or the 4432/50/Flu/B2-40 stoppers. […] Therefore, causes not fully understood led to the enhanced stabilization of the paricalcitol solution contained in samples with 4432/50/Flu/B2-40 stoppers.

Data set [3] can be described thus: accelerated stability model: paricalcitol solution in stoppered vials or ampule, inverted, 80° C., 21 days, HPLC. It counts as physicochemical. On the procedure:
In order to effectively evaluate different container closures, an accelerated stability model was devised, wherein vials that contained a paricalcitol solution and were sealed with 27 different types of stoppers were stored inverted and protected from light at 80° C. for 21 days. The vials were different only in the composition of the stoppers which were obtained from commercially available sources. Throughout the 21 day trial, samples were removed at day 2, 7, 14 and 21, and the contents of the vial were analyzed by HPLC (High Pressure Liquid Chromatography) to determine the concentration of the test compound paricalcitol compared to a control sample of known concentration. The control sample consisted of a paricalcitol injection solution stored in a sealed glass ampule which maintained 100% potency for the entirety of the test (21 days). The relative concentration of the paricalcitol in the vials stored with test stoppers compared to the control sample was measured indicating stability of the paricalcitol over the 21 day test. In addition, the accelerated shelf-life study conditions were conducted on an identical vial wherein the headspace of the vials was blanketed with argon gas above the paricalcitol solutions prior to sealing with the appropriate stopper. The argon blanketed sample containing a lower concentration of oxygen was compared to the control sample to determine the stability of the test compound in a more inert atmosphere. The 80° C. 21 day rapid screening method of solutions of paricalcitol in the presence of different stoppers was designed to predict the stability of the test compound (i.e., paricalcitol) relative to the containers that are used in the current marketed product. The paricalcitol solution preparation: (5 mcg/mL in water-propylene glycol-ethanol/50:30:20; as defined under USP28-NF23 Page 1471 guidelines) contains not less than 90.0 percent and not more than 110.0 percent of the labeled amount of paricalcitol (C27H44O3). 1 mL of solution was added to a 5 mL or 10 mL (for 20 mm stopper) Type 1 glass vial. The vials were sealed with the various types of stoppers. In order to evaluate the effect of oxygen, a second series of identical vials was blanketed with argon prior to capping with the stoppers. All of the samples were stored inverted in a light-protected, 80° C. oven to obtain maximum contact between solution and the stopper. Ampule samples (with no headspace argon gassing) were prepared and stored along with vials under the same condition to serve as a control. At least 2 samples for each type of stopper were pulled out at 2, 7, 14, and 21 day time points and assayed using HPLC without further dilution. Paricalcitol concentration profiles from the vials containing different composition stoppers were compared to the same solution packaged in ampules. The relative concentration of remaining paricalcitol was plotted over the course of the 21 day test to determine the relative stability of paricalcitol in the presence of the test stopper. Chromatographic system used: The liquid chromatograph was equipped with a 252-nm detector and a 4.6-mm×25-cm column that contains 5-μm packing L1 with a flow rate about 2 mL per minute. […] Separately inject equal volumes (about 100 to 200 μL) of the Standard preparation and the Assay preparation into the chromatograph, record the chromatograms, and measure the responses for the major peaks. Calculate the quantity, in μg, of paricalcitol (C27H44O3) in each mL of the Injection taken by the formula: C(rU/rS), in which C is the concentration, in μg per mL, of paricalcitol in the control standard, calculated on the basis of the content of paricalcitol in the USP Paricalcitol Solution RS; and rU and rS are the paricalcitol peak responses obtained from the test samples and the control standard, respectively. Results Five stability studies were conducted to evaluate the stoppers. […]

Turning to `C[C@H](/C=C/[C@H](C)C(C)(C)O)[C@H]1CC[C@H]2/C(=C/C=C3C[C@@H](O)C[C@H](O)C3)CCC[C@]12C` [paricalcitol], the current shelf-life in data set [1] is listed as 1 year. Moreover, the paricalcitol concentration result in data set [2] is “remained constant”; in data set [3] (Study 2, West chlorobutyl and Daikyo chlorinated butyl stoppers, 21 days at 80° C.), “remained unchanged”. Also, the “stability with argon headspace gassing” value in data set [3] (Study 1, argon headspace, chlorobutyl stoppers versus other stoppers) was “more stable”. In addition, the “concentration of paricalcitol within the vial” value in data set [3] (Study 1, without argon headspace, Stopper #8 (Ashland chlorobutyl, Tefzel)) is reported as “comparable to the sample stored in the ampule”. Further, the “degradation over the 21 day test period” value in data set [3] (Study 1, without argon headspace, Stopper #8 (Ashland chlorobutyl, Tefzel) and Stopper #7 (Ashland chlorobutyl, uncoated) versus stoppers #3, 10, 12, 13) is “least degradation”. In addition, the “concentration of paricalcitol at the 21 day interval” value in data set [3] (Study 2, argon headspace, butyl, bromobutyl and POE stoppers compared to chlorobutyl and chlorinated butyl stoppers) is recorded as “still lowest”. Moreover, the stability profile result in data set [3] (Study 3, without argon, Ashland 5212 chlorobutyl stoppers with Plasma and Prop coatings) is “constant stability profiles”. In addition, in data set [3] (Study 4, West 4432/50 stopper without any barrier coating), the “performance relative to ampule” value is given as “performed as well as the ampule sample”. In addition, in data set [3] (Study 4, stoppers consisting of chlorobutyl material), the “concentration of paricalcitol throughout the 21 day test” value is on record as “consistently maintained the highest concentration”. Further, the “time point at which potency drop starts” value in data set [3] (vial with D777-1/FT/B2-40 stopper (marketed stopper), 80° C.) turned out to be 7 days. Moreover, in data set [3] (vials sealed with chlorobutyl or chlorinated butyl stoppers, 80° C.), the “rate of decomposition over the 21 days” value was “slowest rate of decomposition”.
